Measurements from patent US20230255906A1, “Targeting Serpin B9 in Cancer” (The Brigham and Women`s Hospital, Inc., priority 2020, published 2023).

Assays:
A375 human melanoma = A375 human melanoma tumors in NSG mice; format: in vivo, mouse; settings: 300 μg i.p. bid for 14 days
Protocol: FIGS. 10D-10E. […] Data are expressed as means±SEM. *P<0.05 (Student's t-test). Mean survival time (MST) is increased in mice treated with the compound of Formula (III) as compared to Control group (FIG. 10E).
(§1) Mice were anesthetized with isoflurane, and tumor cell lines (B16, A375, and 4T1) were gently injected subcutaneously in the flanks or mammary glands of mice. One hundred thousand cells (1×10^5 cells) were injected per mouse for most of the experiments. However, twenty-five thousand cells (25×10^3 cells) were injected per mouse for the experiments using the compound of Formula (III). Upon 4 hrs post-implantation, 300 μg of the compound of Formula (III) was administered twice a day intraperitoneally for 14 days. Tumor growth was monitored three times per week by digital caliper (Fisherbrand™ Traceable™ Digital Calipers).
To assess if the anti-tumor effects of the compound of Formula (III) were generalizable to human diseases, the efficacy in an NSG humanized mouse model of A375 human melanoma was also tested. […] Thus, the compound of Formula (III) can inhibit Sb9 in melanoma tumor cells and render them susceptible to GrB-mediated apoptosis.

GrB = assay: Grantoxilux assay of GrB activity in B16 cells; format: cell-based, mouse; settings: 200 μM, 24 h
4T1 breast tumors = assay: 4T1 breast tumor model in BALB/c mice; format: in vivo, mouse
Protocol: as §1
Sb9 is highly expressed in human primary breast tumor cells (FIG. 6D) and in the stromal cells within the TME (FIGS. 6D-6E). Whether the compound of Formula (III) could be used to treat mice implanted with 4T1 breast tumor cells was therefore determined. […] Treatment with the compound of Formula (III) increased the median survival time (MST) of mice bearing 4T1 breast tumors and receiving treatment with the compound of Formula (III) as compared to mice bearing 4T1 breast tumors and not receiving treatment (MST=28 days vs MST=22 days, respectively) (FIG. 6G).
For mouse Breast Cancer model, 1×10^5 4T1 cells were subcutaneously implanted into the fourth mammary pad of BABL/c mice, and mice were separated randomly into three groups: Control, compound of Formula (I), and compound of Formula (II). In the compound of Formula (I) group, mice were treated with the compound of Formula (I) for 14 days consecutively ([…], i.p, twice a day). In the compound of Formula (II) group, mice were administrated the compound of Formula (II) 14 days consecutively (300 μg/mouse, i.p, twice a day). Tumor sizes were measured every 3 days from day 5 post-tumor implantation and calculated with formula length×width^2/2.

B16-Sb9 KO tumors = B16-Sb9 KO tumors in Sb9 KO mice; format: in vivo, mouse; settings: Sb9 KO mice bearing B16-Sb9 KO tumors
Protocol: FIG. 5N. Tumor growth curve indicates no difference in antitumor effect of the compound of Formula (III) on B16-Sb9 KO tumors in Sb9 KO mice, as compared to the control group. Data are expressed as means±SEM.
To evaluate the off-target effects of the compound of Formula (III) to Sb9 proteins, the B16-Sb9 KO melanoma cells were treated with various concentrations of the compound of Formula (III). […] Furthermore, the antitumor effects of the compound of Formula (III) on the Sb9 KO mice bearing B16-Sb9 KO tumors, as compared to control group were not observed (FIG. 5N).

MSC-WT cells = assay: ECM fiber production by mesenchymal stem cells; format: cell-based, mouse
Protocol: Isolation and harvest of murine MSCs from either C57BL/6-WT mice or Sb9 KO mice were performed according to the protocol as described previously (Zhu et al., 2010).
To investigate the effect of the compound of Formula (III) on the tumor stroma, MSC-WT cells were treated with the compound of Formula (III) for 48 hrs.

B16 melanoma cells = assay: Caspase-3 activity assay (EnzChek Caspase-3 Assay Kit), caspase-3 induction in tumor cells; format: cell-based, mouse; settings: 200 μM
Method in brief: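 B16 melanoma cells exposed to compounds for 24 h, lysed on ice 30 min, and lysate incubated with Z-DEVD-R110 substrate about 30 min at room temperature. Fluorescence read at ~496/520 nm against untreated-cell and no-enzyme controls; caspase-3 induction serves as surrogate for GrB activity from Sb9 inhibition.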

## O=C(O)c1ccc2ncoc2c1 [Formula (III), 1,3-benzoxazole-6-carboxylic acid]
A375 human melanoma
  MST vs control: increased MST
  reduction of size of human melanoma tumors vs controls: 2.1 fold
GrB
  activity of GrB: increased activity of GrB
4T1 breast tumors; 17 days post-implantation
  levels of stromal cells and CAFs in breast tumors: reduced levels
4T1 breast tumors; BALB/c mice, 300 μg i.p. bid for 14 days
  reduction of size of 4T1-derived tumors vs control: 2.5 fold
4T1 breast tumors; mice bearing 4T1 breast tumors, 300 μg i.p. bid for 14 days
  median survival time (MST): 28 days
B16-Sb9 KO tumors
  antitumor effects vs control group: not observed
MSC-WT cells; 48 hrs treatment
  production of fibronectin and collagen I by MSC-WT cells: reduced the production of fibronectin and collagen I
MSC-WT cells; co-culture with B16-GFP cells
  expression of fibronectin and collagen I by MSC-WT cells co-cultured with B16 cells: decreased the expression of fibronectin and collagen I
B16 melanoma cells; 24 h
  increase in caspase-3 activity compared to 3,4-dihydroxybenzoic acid: ~4 fold
B16 melanoma cells; GrB inhibitor (368050) 10 μM
  GrB-mediated apoptosis (caspase-3 activity): induced GrB-mediated apoptosis
